Eleven compounds from ChEMBL document CHEMBL1201862, “PubChem BioAssay data set” (2004) can be followed below.

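Growth conditions: 96-well plates. Treatment: test compound, 48 hours, 5 concentrations. Analysis: linear interpolation between bracketing concentrations; unreached endpoints set to highest concentration. GI50 is the concentration that inhibits growth by half.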 Calls of active or inactive are those of the source. Cut-off read from the data, not from the text of the source: active = GI50 up to about 1.1 µM and inactive = higher.

What all share (assay): inhibition of tumour cell growth, NCI panel, 48 h
Experiment [1] deals with Hs-578T.
Experiment [2] has as its system A549.
For experiment [3], the system named is OVCAR-5.
In experiment [4] the test system is SR.
Experiment [5] relates to BT-549.
Experiment [6] deals with K562.
In experiment [7] the test system is SF-268.
In experiment [8] the test system is SK-OV-3.
The subject of experiment [9] is 786-0.
Experiment [10] has as its system T47D.
The subject of experiment [11] is HOP-92.
Experiment [12] deals with SF-295.
Experiment [13] has as its system PC-3.
For experiment [14], the system named is NCI-H23.
The subject of experiment [15] is U-251.
Experiment [16] deals with UACC-257.
The test system of experiment [17] is OVCAR-8.
Experiment [18] concerns EKVX.
For experiment [19], the system named is Malme-3M.

Consider `O=C(CCc1cc(O)cc(O)c1)NCCc1cc(O)cc(O)c1`, for which the GI50 in experiment [1], in [2], in [3], in [4], in experiment [5] and in experiment [6] was > 100 µM (inactive) each time. Moreover, the GI50 in experiment [7], in experiment [8], in experiment [9], in experiment [10], in [11] and in [12] was > 100 µM (inactive) throughout. Moreover, the GI50 in experiment [13], in experiment [14], in [15], in experiment [16], in experiment [17] and in experiment [18] was > 100 µM (inactive) throughout.
As to `COC(=O)/C=C\[C@H]1[C@H](C)N1S(=O)(=O)c1ccc(C)cc1` (stereo not given in full), the GI50 in [1], in [2], in experiment [3], in [4], in experiment [5] and in experiment [6] was > 100 µM (inactive) in each case. Also, the GI50 in [7], in [8], in experiment [9], in experiment [19], in experiment [10] and in experiment [12] was > 100 µM (inactive) each time. Also, the GI50 in experiment [13], in experiment [14], in experiment [15], in experiment [16], in experiment [17] and in experiment [18] was > 100 µM (inactive) throughout.
In the case of `Cc1ccc(/C=C2\Cc3cc(C)c(C)cc3C2=O)c(C(=O)O)c1`, the GI50 was 37.9 µM (inactive) in experiment [1]; 30.8 µM (inactive) in [2]; 52.2 µM (inactive) in experiment [4]; 16.3 µM (inactive) in experiment [5]; 44.1 µM (inactive) in experiment [6]; 24.3 µM (inactive) in experiment [7]. Moreover, the GI50 in experiment [9] was 40.2 µM (inactive); in experiment [19], 42.1 µM (inactive); in experiment [10], 43.3 µM (inactive); in experiment [12] it was 33.5 µM (inactive); in experiment [13] it was 22.3 µM (inactive); in experiment [14], > 10 µM (inactive). For the same compound, the GI50 in experiment [15] is 26.1 µM (inactive); in experiment [16], 24.5 µM (inactive); in experiment [17], 43.5 µM (inactive); in experiment [18], 87.7 µM (inactive).
Consider `Cn1c(=O)c2c(nc3n(CCCCl)c(=O)ccn23)n(C)c1=O`, for which the GI50 in [1], in [2], in experiment [3], in experiment [4], in [5] and in experiment [6] was > 100 µM (inactive) each time. Also, the GI50 in experiment [7], in [8], in experiment [9], in [10], in experiment [11] and in experiment [12] was > 100 µM (inactive) throughout. For the same compound, the GI50 in experiment [13], in experiment [14], in experiment [15], in [16], in experiment [17] and in experiment [18] was > 100 µM (inactive) throughout.
For `COc1ccc(OC)c2c(/C=C/c3ccc(N(C)C)cc3)ccnc12`, the GI50 is 8.15 µM (inactive) in [1]; > 10 µM (inactive) in experiment [2]; > 10 µM (inactive) in experiment [3]; > 10 µM (inactive) in experiment [5]; > 10 µM (inactive) in experiment [6]; > 10 µM (inactive) in experiment [7]. The GI50 in [8] is > 10 µM (inactive); in experiment [9], 4.01 µM (inactive); in experiment [19], 4.51 µM (inactive); in experiment [10], > 10 µM (inactive); in experiment [11] it was 5.87 µM (inactive); in [12], > 10 µM (inactive). Also, the GI50 is > 10 µM (inactive) in experiment [13]; > 10 µM (inactive) in [14]; 5.31 µM (inactive) in experiment [15]; 4 µM (inactive) in [16]; > 10 µM (inactive) in [17]; > 10 µM (inactive) in experiment [18].
For the compound `COCC1OC(S(=O)(=O)c2ccccc2)C(O)C(OC)C1OC` (stereo not given), the GI50 in experiment [1], in experiment [2], in experiment [3], in [4], in experiment [5] and in [6] was > 100 µM (inactive) in each case. Also, the GI50 in [7], in [8], in experiment [9], in experiment [19], in experiment [10] and in experiment [12] was > 100 µM (inactive) each time. Besides, the GI50 in experiment [13], in experiment [14], in experiment [15], in experiment [16], in experiment [17] and in experiment [18] was > 100 µM (inactive) in each case.
On to `Cc1n[nH]c(=S)n1/N=C/c1ccc(-c2ccc(Cl)cc2)o1`, for which the GI50 is 37.5 µM (inactive) in [1]; > 100 µM (inactive) in experiment [2]; > 100 µM (inactive) in experiment [3]; > 100 µM (inactive) in experiment [4]; 11.3 µM (inactive) in experiment [5]; > 100 µM (inactive) in experiment [6]. In addition, the GI50 is 29.2 µM (inactive) in experiment [7]; > 100 µM (inactive) in [9]; > 100 µM (inactive) in [10]; 69 µM (inactive) in [11]; 67.8 µM (inactive) in [12]; > 100 µM (inactive) in experiment [13]. Further, the GI50 in [14] was 39.6 µM (inactive); in [15] it was 31.6 µM (inactive); in experiment [16], > 100 µM (inactive); in experiment [17] it was 93.1 µM (inactive); in [18] it was 61.9 µM (inactive).
Regarding `CNCCCn1c2ccccc2c2c3c(c(-c4ccsc4)cc21)C(=O)NC3=O`, the GI50 was 1.85 µM (inactive) in experiment [1]; 1.17 µM (inactive) in [2]; 1.5 µM (inactive) in experiment [3]; < 0.01 µM (active) in experiment [4]; 2.1 µM (inactive) in [5]; 2.81 µM (inactive) in experiment [6]. In addition, the GI50 was 1.51 µM (inactive) in [7]; 1.19 µM (inactive) in [8]; 0.259 µM (active) in [9]; 0.163 µM (active) in [19]; 2.09 µM (inactive) in experiment [10]; 0.0953 µM (active) in [12]. Further, the GI50 in [13] is 0.178 µM (active); in experiment [14], 0.0822 µM (active); in [15], 1.95 µM (inactive); in [16], 1.58 µM (inactive); in [17], 0.281 µM (active); in experiment [18], 1.85 µM (inactive).
Consider `O=C1OC(c2ccccc2)=NC1c1ccccc1` (stereo not given), for which the GI50 in [1], in experiment [2], in [3], in experiment [4], in [5] and in [6] was > 100 µM (inactive) throughout. Further, the GI50 in [7], in experiment [8], in [9], in experiment [10], in experiment [11] and in experiment [12] was > 100 µM (inactive) each time. For the same compound, the GI50 in experiment [13], in [14], in experiment [15], in [16], in experiment [17] and in experiment [18] was > 100 µM (inactive) throughout.
For the compound `CCOC(=O)c1cc(C2CCN(Cc3ccccc3)C2=O)c(C(=O)/C=C(/C)N)[nH]1` (stereo not given), the GI50 in experiment [1] was 98.4 µM (inactive); in experiment [2], 73.6 µM (inactive); in experiment [3], > 100 µM (inactive); in experiment [5], > 100 µM (inactive); in experiment [6] it was > 100 µM (inactive); in experiment [7], > 100 µM (inactive). For the same compound, the GI50 is 70.5 µM (inactive) in experiment [8]; 55.6 µM (inactive) in [9]; > 100 µM (inactive) in [19]; > 100 µM (inactive) in [10]; 25.8 µM (inactive) in [11]; 46.3 µM (inactive) in [12]. The GI50 in [13] was > 100 µM (inactive); in experiment [14], > 100 µM (inactive); in experiment [15], > 100 µM (inactive); in experiment [16], > 100 µM (inactive); in experiment [17] it was 65.5 µM (inactive); in experiment [18], > 100 µM (inactive).
Take `CCOC(=O)/C=C1\c2ccccc2C(=O)N1CC(=O)OCC`: the GI50 in experiment [1], in experiment [2], in [3], in experiment [5], in [6] and in experiment [7] was > 100 µM (inactive) each time. For the same compound, the GI50 in experiment [8] was > 100 µM (inactive); in [9] it was > 100 µM (inactive); in [19] it was > 100 µM (inactive); in experiment [10] it was > 100 µM (inactive); in [11] it was 39.9 µM (inactive); in experiment [12] it was > 100 µM (inactive). Moreover, the GI50 in experiment [13], in experiment [14], in experiment [15], in experiment [16], in [17] and in [18] was > 100 µM (inactive) throughout.
